Assay results as given in ChEMBL document CHEMBL4325853, “Design, synthesis and antibacterial evaluation of 2,4-disubstituted-6-thiophenyl-pyrimidines” (Eur J Med Chem, 2019).
Values after ≈ are worked out from the molar mass of the structure shown.

What was measured:
Assay type in all cases: functional
[1] = system: Staphylococcus aureus; experiment: Antibacterial activity against methicillin-resistant Staphylococcus aureus isolate 7863 after 18 hrs by broth microdilution method; settings: isolate 7863, 18 h
[2] = system: Staphylococcus aureus; experiment: Antibacterial activity against methicillin-resistant Staphylococcus aureus isolate 7183 after 18 hrs by broth microdilution method; settings: isolate 7183, 18 h
[3] = system: Staphylococcus aureus; experiment: Antibacterial activity against methicillin-resistant Staphylococcus aureus isolate 7247 after 18 hrs by broth microdilution method; settings: isolate 7247, 18 h
[4] = system: Staphylococcus aureus; experiment: Antibacterial activity against methicillin-resistant Staphylococcus aureus isolate 7813 after 18 hrs by broth microdilution method; settings: isolate 7813, 18 h
[5] = system: Enterococcus faecalis; experiment: Antibacterial activity against vancomycin-resistant Enterococcus faecalis ATCC 51575 after 18 hrs by broth microdilution method; settings: ATCC 51575, 18 h
[6] = system: Staphylococcus aureus; experiment: Antibacterial activity against methicillin-resistant Staphylococcus aureus isolate 6515 after 18 hrs by broth microdilution method; settings: isolate 6515, 18 h
[7] = system: Staphylococcus aureus; experiment: Antibacterial activity against methicillin-resistant Staphylococcus aureus isolate 7434 after 18 hrs by broth microdilution method; settings: isolate 7434, 18 h
[8] = system: Staphylococcus aureus; experiment: Antibacterial activity against methicillin-resistant Staphylococcus aureus isolate 3123 after 18 hrs by broth microdilution method; settings: isolate 3123, 18 h
[9] = system: Staphylococcus aureus; experiment: Antibacterial activity against methicillin-resistant Staphylococcus aureus ATCC BAA41 after 18 hrs by broth microdilution method; settings: ATCC BAA41, 18 h
[10] = system: Staphylococcus aureus; experiment: Antibacterial activity against methicillin-resistant Staphylococcus aureus isolate 4023 after 18 hrs by broth microdilution method; settings: isolate 4023, 18 h
[11] = system: Staphylococcus aureus; experiment: Antibacterial activity against methicillin-resistant Staphylococcus aureus isolate 8078 after 18 hrs by broth microdilution method; settings: isolate 8078, 18 h
[12] = system: Staphylococcus aureus; experiment: Antibacterial activity against methicillin-resistant Staphylococcus aureus isolate 8071 after 18 hrs by broth microdilution method; settings: isolate 8071, 18 h
[13] = system: Staphylococcus aureus; experiment: Antibacterial activity against methicillin-resistant Staphylococcus aureus ATCC BAA1720 after 18 hrs by broth microdilution method; settings: ATCC BAA1720, 18 h
[14] = system: Staphylococcus aureus; experiment: Antibacterial activity against methicillin-resistant Staphylococcus aureus isolate 5035 after 18 hrs by broth microdilution method; settings: isolate 5035, 18 h
[15] = system: Staphylococcus aureus; experiment: Antibacterial activity against methicillin-resistant Staphylococcus aureus isolate 7943 after 18 hrs by broth microdilution method; settings: isolate 7943, 18 h
[16] = system: Staphylococcus aureus; experiment: Antibacterial activity against methicillin-resistant Staphylococcus aureus isolate 1651 after 18 hrs by broth microdilution method; settings: isolate 1651, 18 h
[17] = system: Staphylococcus aureus; experiment: Antibacterial activity against methicillin-resistant Staphylococcus aureus isolate 2350 after 18 hrs by broth microdilution method; settings: isolate 2350, 18 h
[18] = system: Staphylococcus aureus; experiment: Antibacterial activity against methicillin-resistant Staphylococcus aureus isolate 2931 after 18 hrs by broth microdilution method; settings: isolate 2931, 18 h
[19] = system: Staphylococcus aureus; experiment: Antibacterial activity against methicillin-resistant Staphylococcus aureus isolate 7807 after 18 hrs by broth microdilution method; settings: isolate 7807, 18 h
[20] = system: Staphylococcus aureus; experiment: Antibacterial activity against methicillin-resistant Staphylococcus aureus isolate 7916 after 18 hrs by broth microdilution method; settings: isolate 7916, 18 h
[21] = system: Enterococcus faecalis; experiment: Antibacterial activity against Enterococcus faecalis ATCC 29212 after 18 hrs by broth microdilution method; settings: ATCC 29212, 18 h
[22] = system: Staphylococcus aureus; experiment: Antibacterial activity against methicillin-resistant Staphylococcus aureus isolate 1947 after 18 hrs by broth microdilution method; settings: isolate 1947, 18 h
[23] = system: Staphylococcus aureus; experiment: Antibacterial activity against methicillin-resistant Staphylococcus aureus isolate 2491 after 18 hrs by broth microdilution method; settings: isolate 2491, 18 h
[24] = system: Staphylococcus aureus; experiment: Antibacterial activity against methicillin-resistant Staphylococcus aureus isolate 5395 after 18 hrs by broth microdilution method; settings: isolate 5395, 18 h
[25] = system: Staphylococcus aureus; experiment: Antibacterial activity against methicillin-resistant Staphylococcus aureus isolate 8179 after 18 hrs by broth microdilution method; settings: isolate 8179, 18 h
[26] = system: Staphylococcus aureus; experiment: Antibacterial activity against methicillin-resistant Staphylococcus aureus isolate 7536 after 18 hrs by broth microdilution method; settings: isolate 7536, 18 h
[27] = system: Staphylococcus aureus; experiment: Antibacterial activity against methicillin-resistant Staphylococcus aureus isolate 7844 after 18 hrs by broth microdilution method; settings: isolate 7844, 18 h
[28] = system: Staphylococcus aureus; experiment: Antibacterial activity against Staphylococcus aureus ATCC 29213 after 18 hrs by broth microdilution method; settings: ATCC 29213, 18 h
[29] = system: Staphylococcus aureus; experiment: Antibacterial activity against methicillin-resistant Staphylococcus aureus isolate 7971 after 18 hrs by broth microdilution method; settings: isolate 7971, 18 h
[30] = system: Escherichia coli; experiment: Antibacterial activity against Escherichia coli ATCC 25922 after 18 hrs by broth microdilution method; settings: ATCC 25922, 18 h
[31] = system: Staphylococcus aureus; experiment: Antibacterial activity against methicillin-resistant Staphylococcus aureus isolate 5426 after 18 hrs by broth microdilution method; settings: isolate 5426, 18 h
[32] = system: Staphylococcus aureus; experiment: Antibacterial activity against methicillin-resistant Staphylococcus aureus isolate 1610 after 18 hrs by broth microdilution method; settings: isolate 1610, 18 h
[33] = system: Staphylococcus aureus; experiment: Antibacterial activity against methicillin-resistant Staphylococcus aureus isolate 1220 after 18 hrs by broth microdilution method; settings: isolate 1220, 18 h
[34] = system: Staphylococcus aureus; experiment: Antibacterial activity against methicillin-resistant Staphylococcus aureus isolate 5239 after 18 hrs by broth microdilution method; settings: isolate 5239, 18 h

## CN[C@H](CC(C)C)C(=O)N[C@H]1C(=O)N[C@@H](CC(N)=O)C(=O)N[C@H]2C(=O)N[C@H]3C(=O)N[C@H](C(=O)N[C@H](C(=O)O)c4cc(O)cc(O)c4-c4cc3ccc4O)[C@H](O)c3ccc(c(Cl)c3)Oc3cc2cc(c3O[C@@H]2O[C@H](CO)[C@@H](O)[C@H](O)[C@H]2O[C@H]2C[C@](C)(N)[C@H](O)[C@H](C)O2)Oc2ccc(cc2Cl)[C@H]1O [VANCOMYCIN]
[1]
  MIC90: 1 µg/mL (≈ 0.69 µM)
[2]
  MIC90: 2 µg/mL (≈ 1.38 µM)
[3]
  MIC90: 1 µg/mL (≈ 0.69 µM)
[4]
  MIC90: 1 µg/mL (≈ 0.69 µM)
[5]
  MIC90: > 64 µg/mL
[6]
  MIC90: 1 µg/mL (≈ 0.69 µM)
[7]
  MIC90: 1 µg/mL (≈ 0.69 µM)
[8]
  MIC90: 1 µg/mL (≈ 0.69 µM)
[9]
  MIC90: 2 µg/mL (≈ 1.38 µM)
[10]
  MIC90: 2 µg/mL (≈ 1.38 µM)
[11]
  MIC90: 2 µg/mL (≈ 1.38 µM)
[12]
  MIC90: 1 µg/mL (≈ 0.69 µM)
[13]
  MIC90: 2 µg/mL (≈ 1.38 µM)
[14]
  MIC90: 1 µg/mL (≈ 0.69 µM)
[15]
  MIC90: 2 µg/mL (≈ 1.38 µM)
[16]
  MIC90: 2 µg/mL (≈ 1.38 µM)
[17]
  MIC90: 1 µg/mL (≈ 0.69 µM)
[18]
  MIC90: 1 µg/mL (≈ 0.69 µM)
[19]
  MIC90: 2 µg/mL (≈ 1.38 µM)
[20]
  MIC90: 1 µg/mL (≈ 0.69 µM)
[21]
  MIC90: > 64 µg/mL
[22]
  MIC90: 2 µg/mL (≈ 1.38 µM)
[23]
  MIC90: 2 µg/mL (≈ 1.38 µM)
[24]
  MIC90: 1 µg/mL (≈ 0.69 µM)
[25]
  MIC90: 1 µg/mL (≈ 0.69 µM)
[26]
  MIC90: 1 µg/mL (≈ 0.69 µM)
[27]
  MIC90: 1 µg/mL (≈ 0.69 µM)
[28]
  MIC90: 1 µg/mL (≈ 0.69 µM)
[29]
  MIC90: 1 µg/mL (≈ 0.69 µM)
[30]
  MIC90: 2 µg/mL (≈ 1.38 µM)
[31]
  MIC90: 1 µg/mL (≈ 0.69 µM)
[32]
  MIC90: 1 µg/mL (≈ 0.69 µM)
[33]
  MIC90: 0.5 µg/mL (≈ 0.345 µM)
[34]
  MIC90: 1 µg/mL (≈ 0.69 µM)
